Data taken from PubChem BioAssay AID194 (DTP/NCI, 2004).
Several values for one entry are separate records, joined by “and”; a condition that tells them apart may be missing. Identical values can stand only once. Results filed as inconclusive are left out.

System: BDF1 mice, B16 melanoma s.c., survival/tumor T/C
Assay: NCI In Vivo Anticancer Drug Screen. Data for tumor model B16 Melanoma (subcutaneous) in B6D2F1 (BDF1) mice
Experimental: The antitumor activity of compounds was measured in mice bearing transplantable tumors. Survival or tumor size were measured and the results are expressed as the measurement made in the treated group (T) divided by the measurement made in the vehicle treated control group (C). The tumor model used in this assay is B16 Melanoma (subcutaneous) in B6D2F1 (BDF1) mice

[1] = endpoint: median survival time, dose: 1.0 mg/kg/injection, schedule: Q01DX009 (ip), vehicle: saline with Tween-80, higher = longer survival
[2] = endpoint: median survival time, dose: 2.0 mg/kg/injection, schedule: Q01DX009 (ip), vehicle: saline with Tween-80, higher = longer survival
[3] = endpoint: median survival time, dose: 100.0 mg/kg/injection, schedule: Q01DX009 (ip), vehicle: saline, higher = longer survival
[4] = endpoint: median survival time, dose: 200.0 mg/kg/injection, schedule: Q01DX009 (ip), vehicle: saline, higher = longer survival
[5] = endpoint: median survival time, dose: 400.0 mg/kg/injection, schedule: Q01DX009 (ip), vehicle: saline, higher = longer survival
[6] = endpoint: median survival time, dose: 50.0 mg/kg/injection, schedule: Q01DX009 (ip), vehicle: saline with Tween-80, higher = longer survival
[7] = endpoint: median survival time, dose: 2.0 mg/kg/injection, schedule: Q01DX009 (ip), vehicle: Klucel (hydroxypropylcellulose) (HPC), higher = longer survival

O
T/C (endpoint: median survival time, dose: 50.0 mg/kg/injection, schedule: Q02DX009 (ip), vehicle: saline, higher = longer survival): 94 % of control | T/C (endpoint: median survival time, dose: 100.0 mg/kg/injection, schedule: Q02DX009 (ip), vehicle: saline, higher = longer survival): 101 % of control | T/C (endpoint: median survival time, dose: 200.0 mg/kg/injection, schedule: Q02DX009 (ip), vehicle: saline, higher = longer survival): 118 % of control | T/C (endpoint: median survival time, dose: 400.0 mg/kg/injection, schedule: Q02DX009 (ip), vehicle: saline, higher = longer survival): 98 % of control

COc1cccc2c1C(=O)c1c(O)c3c(c(O)c1C2=O)C[C@@](O)(C(=O)COC(=O)Cc1ccccc1)C[C@@H]3OC1CC(N)C(O)C(C)O1 (stereo partly drawn)
T/C (endpoint: median survival time, dose: 0.5 mg/kg/injection, schedule: Q01DX009 (ip), vehicle: saline with Tween-80, higher = longer survival): 86 % of control | T/C [1]: 88 % of control | T/C [2]: 94 % of control

NCCc1ccc(O)c(O)c1
T/C [3]: 107 % of control | T/C [4]: 106 % of control | T/C [5]: 97 % of control | T/C (endpoint: median survival time, dose: 600.0 mg/kg/injection, schedule: Q01DX009 (ip), vehicle: saline, higher = longer survival): 110 % of control

OCC1SC(O)C(O)C(O)C1O (stereo not drawn)
T/C (endpoint: median survival time, dose: 500.0 mg/kg/injection, schedule: Q02HX003 (ip), vehicle: saline, higher = longer survival): 104 % of control | T/C (endpoint: median survival time, dose: 500.0 mg/kg/injection, schedule: Q02HX003 (ip), vehicle: water, higher = longer survival): 103 % of control | T/C (endpoint: median survival time, dose: 1000.0 mg/kg/injection, schedule: Q02HX003 (ip), vehicle: saline, higher = longer survival): 89 % of control | T/C (endpoint: median survival time, dose: 1000.0 mg/kg/injection, schedule: Q02HX003 (ip), vehicle: water, higher = longer survival): 95 % of control | T/C (endpoint: median survival time, dose: 1500.0 mg/kg/injection, schedule: Q01DX001 (ip), vehicle: saline, higher = longer survival): 100 % of control | T/C (endpoint: median survival time, dose: 1500.0 mg/kg/injection, schedule: Q01DX001 (ip), vehicle: water, higher = longer survival): 99 % of control | T/C (endpoint: median survival time, dose: 3000.0 mg/kg/injection, schedule: Q01DX001 (ip), vehicle: saline, higher = longer survival): 91 % of control | T/C (endpoint: median survival time, dose: 3000.0 mg/kg/injection, schedule: Q01DX001 (ip), vehicle: water, higher = longer survival): 92 % of control

COc1cc2c[n+](C)c3c4cc5c(cc4ccc3c2cc1OC)OCO5
T/C (endpoint: median survival time, dose: 3.12 mg/kg/injection, schedule: Q01DX009 (ip), vehicle: Klucel (hydroxypropylcellulose) (HPC), higher = longer survival): 107 % of control | T/C (endpoint: median survival time, dose: 6.25 mg/kg/injection, schedule: Q01DX009 (ip), vehicle: Klucel (hydroxypropylcellulose) (HPC), higher = longer survival): 96 % of control | T/C (endpoint: median survival time, dose: 12.5 mg/kg/injection, schedule: Q01DX009 (ip), vehicle: Klucel (hydroxypropylcellulose) (HPC), higher = longer survival): 116 % of control

O=P(OCC(Br)CBr)(OCC(Br)CBr)OCC(Br)CBr (stereo not drawn)
T/C [6]: 110 % of control | T/C (endpoint: median survival time, dose: 100.0 mg/kg/injection, schedule: Q01DX009 (ip), vehicle: saline with Tween-80, higher = longer survival): 114 % of control | T/C (endpoint: median survival time, dose: 200.0 mg/kg/injection, schedule: Q01DX009 (ip), vehicle: saline with Tween-80, higher = longer survival): 98 % of control | T/C (endpoint: median survival time, dose: 400.0 mg/kg/injection, schedule: Q01DX009 (ip), vehicle: saline with Tween-80, higher = longer survival): 105 % of control

O=C1OC(C(O)CO)C(O)=C1O (stereo not drawn)
T/C (endpoint: median survival time, dose: 50.0 mg/kg/injection, schedule: Q01DX009 (ip), vehicle: saline, higher = longer survival): 106 % of control | T/C [3]: 103 % of control | T/C [4]: 103 % of control | T/C [5]: 109 % of control | T/C (endpoint: median survival time, dose: 800.0 mg/kg/injection, schedule: Q01DX009 (ip), vehicle: saline, higher = longer survival): 109 % of control

CC[C@](O)(C(=O)O)c1cc2n(c(=O)c1CO)Cc1cc3ccccc3nc1-2
T/C (endpoint: median survival time, dose: 0.25 mg/kg/injection, schedule: Q01DX009 (ip), vehicle: saline, higher = longer survival): 102 % of control | T/C (endpoint: median survival time, dose: 0.5 mg/kg/injection, schedule: Q01DX009 (ip), vehicle: saline, higher = longer survival): 102 % of control | T/C (endpoint: median survival time, dose: 1.0 mg/kg/injection, schedule: Q01DX009 (ip), vehicle: Klucel (hydroxypropylcellulose) (HPC), higher = longer survival): 104 % of control | T/C [7]: 104 % of control | T/C (endpoint: median survival time, dose: 2.0 mg/kg/injection, schedule: Q01DX009 (ip), vehicle: saline, higher = longer survival): 98 % of control

CN[C@H]1CCc2cc(OC)c(OC)c(OC)c2-c2ccc(OC)c(=O)cc21
T/C (endpoint: median survival time, dose: 1.25 mg/kg/injection, schedule: Q01DX009 (ip), vehicle: saline, higher = longer survival): 109 % of control | T/C (endpoint: median survival time, dose: 2.5 mg/kg/injection, schedule: Q01DX009 (ip), vehicle: saline, higher = longer survival): 95 % of control | T/C (endpoint: median survival time, dose: 10.0 mg/kg/injection, schedule: Q01DX009 (ip), vehicle: saline, higher = longer survival): 111 % of control

COc1cccc2c1C(=O)c1c(O)c3c(c(O)c1C2=O)C[C@@](O)(C(=O)COC(=O)Cc1cccc2ccccc12)C[C@@H]3OC1CC(N)C(O)C(C)O1 (stereo partly drawn)
T/C [1]: 111 % of control | T/C [2]: 114 % of control | T/C (endpoint: median survival time, dose: 4.0 mg/kg/injection, schedule: Q01DX009 (ip), vehicle: saline with Tween-80, higher = longer survival): 94 % of control

CO[C@@]12[C@H](COC(N)=O)C3=C(C(=O)C(C)=C(N)C3=O)N1C[C@@H]1N[C@@H]12
T/C (endpoint: median survival time, dose: 0.25 mg/kg/injection, schedule: Q01DX009 (ip), vehicle: Klucel (hydroxypropylcellulose) (HPC), higher = longer survival): 95 % of control | T/C (endpoint: median survival time, dose: 0.5 mg/kg/injection, schedule: Q01DX009 (ip), vehicle: Klucel (hydroxypropylcellulose) (HPC), higher = longer survival): 110 % of control | T/C [7]: 154 % of control | T/C (endpoint: median tumor weight (est.), dose: 0.25 mg/kg/injection, schedule: Q01DX009 (ip), vehicle: saline, higher = larger tumour): 77 % of control | T/C (endpoint: median tumor weight (est.), dose: 0.5 mg/kg/injection, schedule: Q01DX009 (ip), vehicle: saline, higher = larger tumour): 101 % of control | T/C (endpoint: median tumor weight (est.), dose: 1.0 mg/kg/injection, schedule: Q01DX009 (ip), vehicle: saline, higher = larger tumour): 70 % of control | T/C (endpoint: median tumor weight (est.), dose: 2.0 mg/kg/injection, schedule: Q01DX009 (ip), vehicle: saline, higher = larger tumour): 30 % of control

N/C(=N\Cl)C(Cl)(Cl)Cl
T/C (endpoint: median survival time, dose: 6.25 mg/kg/injection, schedule: Q01DX009 (ip), vehicle: saline with Tween-80, higher = longer survival): 102 % of control | T/C (endpoint: median survival time, dose: 12.5 mg/kg/injection, schedule: Q01DX009 (ip), vehicle: saline with Tween-80, higher = longer survival): 98 % of control | T/C [6]: 94 % of control

O=NN(CCCl)C(=O)NC1CCCCC1
T/C (endpoint: median survival time, dose: 4.0 mg/kg/injection, schedule: Q01DX009 (ip), vehicle: saline, higher = longer survival): 115 % of control | T/C (endpoint: median survival time, dose: 5.18 mg/kg/injection, schedule: Q01DX007 (ip), vehicle: Klucel (hydroxypropylcellulose) (HPC), higher = longer survival): 103 % of control | T/C (endpoint: median survival time, dose: 8.64 mg/kg/injection, schedule: Q01DX007 (ip), vehicle: Klucel (hydroxypropylcellulose) (HPC), higher = longer survival): 88 % of control | T/C (endpoint: median survival time, dose: 12.0 mg/kg/injection, schedule: Q01DX001 (ip), vehicle: Klucel (hydroxypropylcellulose) (HPC), higher = longer survival): 111 % of control and 112 % of control and 116 % of control | T/C (endpoint: median survival time, dose: 14.4 mg/kg/injection, schedule: Q01DX007 (ip), vehicle: Klucel (hydroxypropylcellulose) (HPC), higher = longer survival): 124 % of control | T/C (endpoint: median survival time, dose: 16.0 mg/kg/injection, schedule: Q01DX009 (ip), vehicle: saline, higher = longer survival): 175 % of control | T/C (endpoint: median survival time, dose: 32.0 mg/kg/injection, schedule: Q01DX009 (ip), vehicle: saline, higher = longer survival): 105 % of control | T/C (endpoint: median tumor weight (est.), dose: 8.0 mg/kg/injection, schedule: Q01DX009 (ip), vehicle: Klucel (hydroxypropylcellulose) (HPC), higher = larger tumour): 28 % of control and 47 % of control | T/C (endpoint: median tumor weight (est.), dose: 12.5 mg/kg/injection, schedule: Q01DX001 (ip), vehicle: Klucel (hydroxypropylcellulose) (HPC), higher = larger tumour): 96 % of control and 110 % of control | T/C (endpoint: median tumor weight (est.), dose: 16.0 mg/kg/injection, schedule: Q01DX009 (ip), vehicle: Klucel (hydroxypropylcellulose) (HPC), higher = larger tumour): 27 % of control | T/C (endpoint: median tumor weight (est.), dose: 50.0 mg/kg/injection, schedule: Q01DX001 (ip), vehicle: Klucel (hydroxypropylcellulose) (HPC), higher = larger tumour): 21 % of control | T/C (endpoint: median tumor weight (est.), dose: 100.0 mg/kg/injection, schedule: Q01DX001 (ip), vehicle: Klucel (hydroxypropylcellulose) (HPC), higher = larger tumour): 38 % of control

Cn1c(=O)[nH]c2nncnc2c1=O
T/C (endpoint: median survival time, dose: 0.2 mg/kg/injection, schedule: Q01DX009 (ip), vehicle: water, higher = longer survival): 103 % of control | T/C (endpoint: median survival time, dose: 0.4 mg/kg/injection, schedule: Q01DX009 (ip), vehicle: water, higher = longer survival): 119 % of control | T/C (endpoint: median survival time, dose: 0.8 mg/kg/injection, schedule: Q01DX009 (ip), vehicle: water, higher = longer survival): 99 % of control | T/C (endpoint: median survival time, dose: 3.12 mg/kg/injection, schedule: Q01DX009 (ip), vehicle: water, higher = longer survival): 98 % of control and 103 % of control | T/C (endpoint: median survival time, dose: 6.25 mg/kg/injection, schedule: Q01DX009 (ip), vehicle: water, higher = longer survival): 117 % of control | T/C (endpoint: median survival time, dose: 12.5 mg/kg/injection, schedule: Q01DX009 (ip), vehicle: water, higher = longer survival): 96 % of control and 99 % of control | T/C (endpoint: median survival time, dose: 25.0 mg/kg/injection, schedule: Q01DX009 (ip), vehicle: water, higher = longer survival): 114 % of control

O=C1C=CC(=O)O1 (tested in a mixture with another compound)
T/C (endpoint: median survival time, dose: 6.25 mg/kg/injection, schedule: Q01DX009 (ip), vehicle: other, higher = longer survival): 92 % of control | T/C (endpoint: median survival time, dose: 12.5 mg/kg/injection, schedule: Q01DX009 (ip), vehicle: other, higher = longer survival): 101 % of control | T/C (endpoint: median survival time, dose: 25.0 mg/kg/injection, schedule: Q01DX009 (ip), vehicle: other, higher = longer survival): 120 % of control

NC(=O)c1ccc[n+](Cc2c(Cl)cccc2Cl)c1
T/C (endpoint: median survival time, dose: 0.75 mg/kg/injection, schedule: Q01DX009 (ip), vehicle: saline, higher = longer survival): 106 % of control | T/C (endpoint: median survival time, dose: 3.0 mg/kg/injection, schedule: Q01DX009 (ip), vehicle: saline, higher = longer survival): 98 % of control | T/C (endpoint: median survival time, dose: 6.0 mg/kg/injection, schedule: Q01DX009 (ip), vehicle: saline, higher = longer survival): 102 % of control and 117 % of control | T/C (endpoint: median survival time, dose: 12.0 mg/kg/injection, schedule: Q01DX009 (ip), vehicle: saline, higher = longer survival): 106 % of control and 114 % of control
